In article PMC9465256, “Discovering monoacylglycerol lipase inhibitors by a combination of fluorogenic substrate assay and activity-based protein profiling” (Frontiers in Pharmacology, 2022):

Experiments:
[1] = system: serine hydrolases labeled by FP-TAMRA in cancer cells; assay: Competitive ABPP in cancer cell lysates: selectivity / potential targets; assay type: biochemical; conditions: 100 µM, FP-TAMRA 500 nM, in-gel analysis
Protocol: To identify the potential off-targets of the compounds with anti-cancer activities, ABPP was applied. Cancer cells were seeded in the dishes and were washed with PBS, scraped, centrifugated (3,000 × g, 3 min) and pellets snap frozen in liquid in nitrogen. For ABPP experiments, the cell pellets were lysed by probe sonication (3 × 10 bursts) in PBS, followed by the determination of protein concentration of the intact cell lysate by Qubit assay. Subsequently, 20 µl of the cell lysate (1 mg/ml) was preincubated with 0.5 µl of DMSO (vehicle) or inhibitor (100 μM, finial concentration) for 30 min, followed by the treatment with FP-TAMRA (500 nM, final concentration) for 20 min. The reactions were then quenched by 10 µl sample buffer (×4). The obtained samples were directly loaded and resolved on SDS-PAGE gel (10% acrylamide). The gel-based ABPP results were then scanned and analyzed using a ChemiDoc MP system (Cy3 settings, BioRad).

[2] = biological target: T1, human ABHD6 (Homo sapiens, UniProt Q9BV23); assay: ABHD6 activity assay (AA-HNA fluorogenic substrate); assay type: biochemical
T1 construct: expressed in transfected cells; host or cells: HEK293T (transient transfection; membrane fraction)
T1 sequence (Q9BV23 1-337): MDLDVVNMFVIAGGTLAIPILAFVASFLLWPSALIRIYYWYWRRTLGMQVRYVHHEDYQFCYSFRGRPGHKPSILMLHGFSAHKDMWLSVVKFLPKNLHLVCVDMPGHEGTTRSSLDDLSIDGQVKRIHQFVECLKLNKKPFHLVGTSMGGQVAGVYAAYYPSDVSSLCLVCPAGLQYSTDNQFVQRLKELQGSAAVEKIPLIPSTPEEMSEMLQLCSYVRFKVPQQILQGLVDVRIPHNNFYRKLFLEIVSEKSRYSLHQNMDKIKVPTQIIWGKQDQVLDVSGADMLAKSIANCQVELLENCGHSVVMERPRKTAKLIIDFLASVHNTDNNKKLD
How it was run: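 Membranes from HEK293T cells transiently overexpressing human ABHD6 (50 μg/ml final) were preincubated 30 min with inhibitor in 40 mM HEPES pH 7.5, 0.1 mg/ml BSA, 5% DMSO. Hydrolysis of 200 µM AA-HNA was followed by fluorescence for 30 min, activity taken as the 5–15 min slope.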

[3] = system: B16-F10 cells; assay: Cell viability assay (CCK-8), B16-F10; assay type: cell-based; conditions: for IC50: Mus musculus, read-out: Antiproliferation activity (pIC50 ± SEM) B16-F10 (converted)
Protocol: Various cancer cell lines, including human colon cancer cell line HT-29, ovarian cell line OVCAR-3, melanoma cell line B16-F10, skin squamous cancer cells A431, cervical cancer cells Hela, lung cancer cell lines A549, H1975, and HCC827, were purchased from American type culture collection (ATCC). A431, H1975, B16-F10, OVCAR-3, HT-29, HCC827, Hela, and A549 cells were cultured in Dulbecco’s modified Eagle medium (DMEM, Gibco) containing 10% fetal bovine serum (FBS, Gibco), penicillin (100 U/ml) and streptomycin (100 μg/ml). All cell lines were maintained in a humidified 37°C incubator with 5% CO2. The medium was refreshed every 2–3 days and the cells were passaged at ∼90% confluence by adding the fresh medium, followed by vigorously pipetting the resuspend cells. Of note, the cells were only washed with PBS when a significant number of dead cells were observed.
The antiproliferation activity of the compounds against the cancer cell lines was evaluated using Cell Counting Kit-8. Briefly, cells (∼1,000 per well) in 100 µl of culture medium were plated in a 96-well plate for 24 h and 100 µl of medium with different concentrations of the tested compounds was added to each well for 48 h. Then 10 μl of CCK8 solution (#CK04, Dojindo) was added and incubated at 37°C for 2 h. The absorbance of each well was measured with a plate reader (BioTeck) at 450 nm. Cell viability was calculated as follows: cell viability (%) = [(As-Ab)/(Ac-Ab)] × 100. Among them, As represents the absorbance of experimental wells, Ab represents the absorbance of blank wells and Ac represents the absorbance of control wells. The experiments were repeated at least three times and IC50 values were determined by plotting a log(inhibitor) v. s normalized response (Variable slope) dose–response curve generated using GraphPad Prism software.

[4] = 100 µM, AA-HNA substrate assay, Supplementary Table 2, read-out: ABHD6 Inhibition (%)

| Compound | selectivity / potential targets among serine hydrolases in cancer cells [1] | activity at 100 µM [2, 4] [%] | inhibition at 100 µM ([2]; recombinant human ABHD6, 100 µM compound) [%] | ABHD6 inhibition (%) ([2]; recombinant human ABHD6, 100 µM compound, 100 µM) | IC50 ([3]; B16-F10, 48 h, CCK-8) [µM] | activity [2, 4] [%] | Antiproliferation activity (pIC50 ± SEM) B16-F10 ([3]; B16-F10, 48 h, CCK-8) | inhibition of cell viability of B16-F10 ([3]; 20 µM, 48 h) [%] |
| --- | --- | --- | --- | --- | --- | --- | --- | --- |
| C[C@H]1COC2=C1C(=O)C(=O)c1c2ccc2c1CCCC2(C)C [compound 23, Cryptotanshinone] | broad-spectrum inhibitor by targeting a number of serine hydrolases in cancer cells | 62.5 | < 50 | 37 | 7.94 | – | – | – |
| Cl.N=c1ccn2c(n1)O[C@H]1[C@H](O)[C@@H](CO)O[C@H]12 [compound 1, Cyclocytidine HCl] | No potential target was found | – | – | – | – | 89.8 | 5.7 ± 0.2 | – |
| O=c1cc(-c2ccc(O)cc2)oc2cc(O)cc(O)c12 [compound 9, Apigenin] | – | 88.9 | – | – | > 10 | – | – | 54 |
| COc1ccc2cc3[n+](cc2c1OC)CCc1cc2c(cc1-3)OCO2 [compound 17, Berberine chloride] | No potential target was found | 112 | – | – | > 10 | – | – | – |
| COc1ccc(C(C)=O)c(O)c1 [compound 64, Paeonol] | No potential target was found | 96.2 | – | – | > 10 | – | – | – |
